For 27 molecules, fold induction results are on record in US10766869B2, “Triazoles for the treatment of demyelinating dieases” (Vertex Pharmaceuticals Incorporated, priority 2015, dated 2020).

The subject of the test is primary rat mixed cortical cells. The test is described as follows: In vitro myelination assay (MBP positive myelin strands, fold myelin pixels above background). The test is classed as cell-based. To be noted: Rattus norvegicus; for fold induction at 1 µM: 1.0 μM compound; for fold induction at 10 µM: 10.0 μM compound. A digest of the protocol: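 Compounds at 1.0 and 10.0 μM were incubated 14 days with dissociated P1 rat cortical cells, which were then fixed and immunostained for MBP. Myelination was scored as fold MBP myelin pixels per well over the no-compound baseline.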

[1] abbreviates: relative to baseline of no added compound, read-out: Fold myelin pixels above background, 1.0 μM.
Setting [2] is: relative to baseline of no added compound, read-out: Fold myelin pixels above background, 10.0 μM.
[3] abbreviates: relative to baseline of no added compound, read-out: Fold myelin pixels above background.
Setting [4] is: read-out: Fold myelin pixels above background relative to baseline of no added compound.

Molecules are shown by their SMILES. Read-outs that look alike come from different tables or passages of the source. Bounds are passed on as bounds.

For `Cc1cc(Nc2ncn(-c3cc(F)cc(F)c3)n2)cc(N2CCN3C(=O)OCC3C2)c1` (stereo not drawn) [Compound 200, 7-[3-[[1-(3,5-difluorophenyl)-1,2,4-triazol-3-yl]amino]-5-methyl-phenyl]-5,6,8,8a-tetrahydro-1H-oxazolo[3,4-a]pyrazin-3-one], the fold induction at 1 µM under setting [1] lay in the range of 100 to 1000. The fold induction at 10 µM under setting [2] lay in the range of 100 to 1000.
For the molecule `Fc1cc(F)cc(-n2cnc(Nc3cc(C4=CCOC4)cc(N4CCOCC4)c3)n2)c1` [Compound 298, 1-(3,5-difluorophenyl)-N-[3-(2,5-dihydrofuran-3-yl)-5-morpholino-phenyl]-1,2,4-triazol-3-amine], under setting [1], the fold induction at 1 µM is 1000 to 10000. Moreover, the fold induction at 10 µM under setting [2] was 100 to 1000.
On to `COCC1CCN(c2cc(C)cc(Nc3ncn(-c4ccccc4)n3)c2)CC1` [Compound 481, N-[3-[4-(methoxymethyl)-1-piperidyl]-5-methyl-phenyl]-1-phenyl-1,2,4-triazol-3-amine], for which, under setting [3], the fold induction at 1 µM lay within 100 to 1000 and the fold induction at 10 µM was 100 to 1000.
For `CSc1cccc(-n2cnc(Nc3cc(C)cc(N4CCN(C5COC5)CC4)c3)n2)c1` [Compound 439, N-[3-methyl-5-[4-(oxetan-3-yl)piperazin-1-yl]phenyl]-1-(3-methylsulfanylphenyl)-1,2,4-triazol-3-amine], under setting [3], the fold induction at 1 µM lay within 1 to 10 and the fold induction at 10 µM lay within 1 to 10.
With `Cc1cc(Nc2ncn(-c3cc(F)cc(F)c3)n2)cc(N2CC(NCCO)C2)c1` [Compound 791, 2-[[1-[3-[[1-(3,5-difluorophenyl)-1,2,4-triazol-3-yl]amino]-5-methyl-phenyl]azetidin-3-yl]amino]ethanol], under setting [4], the fold induction at 1 µM was in the range of 10 to 100 and the fold induction at 10 µM is at most 1.
Regarding `c1ccc(-n2cnc(Nc3cc(C4CC4)cc(N4CCOCC4)c3)n2)cc1` [Compound 305, N-(3-cyclopropyl-5-morpholino-phenyl)-1-phenyl-1,2,4-triazol-3-amine], the fold induction at 1 µM under setting [1] was 100 to 1000. Further, the fold induction at 10 µM under setting [2] is at most 1.
On to `[2H]C1([2H])OC([2H])([2H])C([2H])([2H])N(c2cc(C)cc(Nc3ncn(-c4ccc(F)c(F)c4)n3)c2)C1([2H])[2H]` [Compound 1066, 1-(3,4-difluorophenyl)-N-[3-methyl-5-(2,2,3,3,5,5,6,6-octadeuteriomorpholin-4-yl)phenyl]-1,2,4-triazol-3-amine], for which, under setting [4], the fold induction at 1 µM lay in the range of 10 to 100 and the fold induction at 10 µM is at most 1.
With `CCc1cc(Nc2ncn(-c3cccc(F)c3)n2)cc(N2CC(N3CCOCC3)C2)c1` [Compound 15, N-[3-ethyl-5-(3-morpholinoazetidin-1-yl)phenyl]-1-(3-fluorophenyl)-1,2,4-triazol-3-amine], under setting [1], the fold induction at 1 µM lay within 100 to 1000. Further, the fold induction at 10 µM under setting [2] is 10 to 100.
Regarding `Cc1cc(Nc2ncn(-c3cc(F)cc(F)c3)n2)cc(N2CC(CC#N)C2)c1` [Compound 921, 2-[1-[3-[[1-(3,5-difluorophenyl)-1,2,4-triazol-3-yl]amino]-5-methyl-phenyl]azetidin-3-yl]acetonitrile], under setting [4], the fold induction at 1 µM lay in the range of 10 to 100 and the fold induction at 10 µM lay in the range of 1 to 10.
For the molecule `FC(F)(F)c1cc(Nc2ncn(-c3ccccn3)n2)nc(N2CCN(C3COC3)CC2)c1` [Compound 548, 6-[4-(oxetan-3-yl)piperazin-1-yl]-N-[1-(2-pyridyl)-1,2,4-triazol-3-yl]-4-(trifluoromethyl)pyridin-2-amine], under setting [3], the fold induction at 1 µM was in the range of 1 to 10 and the fold induction at 10 µM lay within 1 to 10.
As for `CCC(O)CN1CCN(c2cc(C)cc(Nc3ncn(-c4cc(F)cc(F)c4)n3)c2)CC1` (stereo not drawn) [Compound 957, 1-[4-[3-[[1-(3,5-difluorophenyl)-1,2,4-triazol-3-yl]amino]-5-methyl-phenyl]piperazin-1-yl]butan-2-ol], under setting [4], the fold induction at 1 µM was in the range of 10 to 100 and the fold induction at 10 µM is at most 1.
Turning to `Cc1ccc(-n2cnc(Nc3cc(F)cc(N4CCN(C5COC5)CC4)c3)n2)cc1F` [Compound 779, 1-(3-fluoro-4-methyl-phenyl)-N-[3-fluoro-5-[4-(oxetan-3-yl)piperazin-1-yl]phenyl]-1,2,4-triazol-3-amine], under setting [3], the fold induction at 1 µM lay in the range of 1 to 10 and the fold induction at 10 µM was in the range of 1 to 10.
As for `FC(F)(F)c1cc(Nc2ncn(-c3ccccc3)n2)cc(N2CCOCC2)c1` [Compound 366, N-[3-morpholino-5-(trifluoromethyl)phenyl]-1-phenyl-1,2,4-triazol-3-amine], the fold induction at 1 µM under setting [1] fell in the range of 1000 to 10000. In addition, under setting [2], the fold induction at 10 µM was 1000 to 10000.
`COc1cc(-n2cnc(Nc3cc(C)cc(N4CCN(C5COC5)CC4)c3)n2)ncn1` [Compound 254, 1-(6-methoxypyrimidin-4-yl)-N-[3-methyl-5-[4-(oxetan-3-yl)piperazin-1-yl]phenyl]-1,2,4-triazol-3-amine]: under setting [1], the fold induction at 1 µM was at most 1. Besides, the fold induction at 10 µM under setting [2] was in the range of 100 to 1000.
`Cc1cc(Nc2ncn(-c3cccc(F)c3)n2)cc(C2CN(C3COC3)C2)c1` [Compound 36, 1-(3-fluorophenyl)-N-[3-methyl-5-[1-(oxetan-3-yl)azetidin-3-yl]phenyl]-1,2,4-triazol-3-amine]: the fold induction at 1 µM under setting [1] was 1000 to 10000. Further, under setting [2], the fold induction at 10 µM was at most 1.
Regarding `Cc1cc(Nc2ncn(-c3ccncc3)n2)cc(N2CCOCC2)c1` [Compound 84, N-(3-methyl-5-morpholino-phenyl)-1-(4-pyridyl)-1,2,4-triazol-3-amine], the fold induction at 1 µM under setting [1] lay within 1000 to 10000. The fold induction at 10 µM under setting [2] lay in the range of 10 to 100.
As for `Cc1cc(Nc2ncn(-c3cc(F)cc(F)c3)n2)cc(N2CC[C@H](N3CCCC3)C2)c1` [Compound 986, 1-(3,5-difluorophenyl)-N-[3-methyl-5-[(3S)-3-pyrrolidin-1-ylpyrrolidin-1-yl]phenyl]-1,2,4-triazol-3-amine], under setting [4], the fold induction at 1 µM was in the range of 1 to 10 and the fold induction at 10 µM was at most 1.
Turning to `CCOC(=O)CN1CCN(c2cc(C)cc(Nc3ncn(-c4cc(F)cc(F)c4)n3)c2)CC1` [Compound 72, ethyl 2-[4-[3-[[1-(3,5-difluorophenyl)-1,2,4-triazol-3-yl]amino]-5-methyl-phenyl]piperazin-1-yl]acetate], under setting [1], the fold induction at 1 µM is 10 to 100. The fold induction at 10 µM under setting [2] is 1 to 10.
In the case of `Cc1cc(Nc2ncn(-c3cc(F)cc(F)c3)n2)cc(N2CCC3OCCC3C2)c1` (stereo not drawn) [Compound 528, N-[3-(3,3a,4,6,7,7a-hexahydro-2H-furo[3,2-c]pyridin-5-yl)-5-methyl-phenyl]-1-(3,5-difluorophenyl)-1,2,4-triazol-3-amine], under setting [3], the fold induction at 1 µM lay within 100 to 1000 and the fold induction at 10 µM is 100 to 1000.
On to `Cc1cc(Nc2ncn(-c3cccc(C(F)F)c3)n2)nc(NC2CCOC2)c1` (stereo not drawn) [Compound 689, N6-[1-[3-(difluoromethyl)phenyl]-1,2,4-triazol-3-yl]-4-methyl-N2-tetrahydrofuran-3-yl-pyridine-2,6-diamine], for which, under setting [3], the fold induction at 1 µM lay within 1 to 10 and the fold induction at 10 µM was in the range of 1 to 10.
On to `Cc1cc(Nc2ncn(-c3cncnc3)n2)cc(N2CCN(C3COC3)CC2)c1` [Compound 535, N-[3-methyl-5-[4-(oxetan-3-yl)piperazin-1-yl]phenyl]-1-pyrimidin-5-yl-1,2,4-triazol-3-amine], for which, under setting [3], the fold induction at 1 µM fell in the range of 1 to 10 and the fold induction at 10 µM is 1 to 10.
As for `Cc1cc(NC2CCOCC2)cc(Nc2ncn(-c3cc(F)cc(F)c3)n2)c1F` [Compound 1021, N3-[1-(3,5-difluorophenyl)-1,2,4-triazol-3-yl]-4-fluoro-5-methyl-N1-tetrahydropyran-4-yl-benzene-1,3-diamine], under setting [4], the fold induction at 1 µM fell in the range of 1 to 10 and the fold induction at 10 µM was at most 1.
For the molecule `Fc1cc(F)cc(-n2cnc(Nc3cc(C(F)(F)F)cc(N4CCN(C5CCOC5)CC4)n3)n2)c1` (stereo not drawn) [Compound 564, N-[1-(3,5-difluorophenyl)-1,2,4-triazol-3-yl]-6-(4-tetrahydrofuran-3-ylpiperazin-1-yl)-4-(trifluoromethyl)pyridin-2-amine], under setting [3], the fold induction at 1 µM was at most 1 and the fold induction at 10 µM was at most 1.
`Fc1ccc(-n2cnc(Nc3cc(C4CC4)nc(N4CCCCC4)c3)n2)cc1F` [Compound 327, 2-cyclopropyl-N-[1-(3,4-difluorophenyl)-1,2,4-triazol-3-yl]-6-(1-piperidyl)pyridin-4-amine]: the fold induction at 1 µM under setting [1] lay within 100 to 1000. Also, the fold induction at 10 µM under setting [2] is 100 to 1000.
As for `Fc1cccc(-n2cnc(Nc3cc(C(F)F)cc(N4CCN(C5COC5)CC4)n3)n2)c1` [Compound 525, 4-(difluoromethyl)-N-[1-(3-fluorophenyl)-1,2,4-triazol-3-yl]-6-[4-(oxetan-3-yl)piperazin-1-yl]pyridin-2-amine], under setting [3], the fold induction at 1 µM was 100 to 1000 and the fold induction at 10 µM lay within 10 to 100.
`Cc1cc(Nc2ncn(-c3ccccn3)n2)cc(N2CCN(C3COC3)CC2)c1` [Compound 104, N-[3-methyl-5-[4-(oxetan-3-yl)piperazin-1-yl]phenyl]-1-(2-pyridyl)-1,2,4-triazol-3-amine]: the fold induction at 1 µM under setting [1] fell in the range of 10 to 100. Besides, the fold induction at 10 µM under setting [2] lay in the range of 100 to 1000.
For the molecule `Cc1cc(Nc2ncn(-c3ccccc3)n2)cc(N2CC(C)NCC2C)c1` (stereo not drawn) [Compound 21, N-[3-(2,5-dimethylpiperazin-1-yl)-5-methyl-phenyl]-1-phenyl-1,2,4-triazol-3-amine], under setting [1], the fold induction at 1 µM lay within 10 to 100. For the same molecule, under setting [2], the fold induction at 10 µM was at most 1.
